Measurements: patent US5665886A, “Salts of substituted nitrogenous heteroaromatic compounds, a process for their preparation and pharmaceutical compositions containing them” (Sanofi, priority 1994, dated 1997)

Test system: substance P receptor NK1
Experiment: Binding (inhibition of fixation) of [125I]BH-SP to NK1 receptors in rat cortex, guinea pig ileum and human lymphoblastic cells
Description: The affinity of compounds for tachykinin receptors has been evaluated in vitro by a number of biochemical tests using radioligands: 1) Bonding of [^125 I]BH-SP (substance P labelled with iodine-125 using a Bolton-Hunter reagent) to NK1 receptors in the rat cortex, the guinea pig ileum and human lymphoblastic cells. The tests were carried out as described in X. Emonds et al., (Eur. J. Pharmacol., 1993, 250, 403-413).

CC(C)Oc1cccc(CC(=O)N(C)CC(CC[n+]2ccc(Cc3ccccc3)cc2)c2ccc(Cl)c(Cl)c2)c1 (centres unmarked) [Example 2, 4-benzyl-1-[3-(3,4-dichlorophenyl)-4)-4-[N-methyl-(3-iso-propyloxyphenyl)acetylamino]butyl]pyridinium methanesulfonate dihydrate]
antagonism of substance P receptor NK1: powerful antagonists

CC(C)Oc1cccc(CC(=O)N2CCCC(CC[n+]3ccc(Cc4ccccc4)cc3)(c3ccc(Cl)c(Cl)c3)C2)c1.O.O.[Cl-] (centres unmarked) [Example 4, 4-benzyl-1-[2-[3-(3,4-dichlorophenyl)-1-[(3-isopropoxyphenyl)-acetyl]piperidin-3-yl]ethyl]pyridinium chloride dihydrate]
antagonism of substance P receptor NK1: powerful antagonists
